Results: the kinase profiling compilation of Christmann-Franck et al. (2016)

Legend:
Test in all cases: KINOMEscan competition binding
Details in all cases: compound 10.0 µM
[1] = target: MAPK4 (human) (UniProt P31152)
[2] = target: CAMK4 (human) (UniProt Q16566)
[3] = target: PRKCH (human) (UniProt P24723)
[4] = target: STK17A (human) (UniProt Q9UEE5)
[5] = target: MAPK8 (human) (UniProt P45983)
[6] = target: MAP2K4 (human) (UniProt P45985)
[7] = target: PRKX (human) (UniProt P51817)
[8] = target: ADCK3 (human) (UniProt Q8NI60)
[9] = target: ZAP70 (human) (UniProt P43403)
[10] = target: ACVRL1 (human) (UniProt P37023)
Chain of ACVRL1 (human) (P37023 whole entry, looked up): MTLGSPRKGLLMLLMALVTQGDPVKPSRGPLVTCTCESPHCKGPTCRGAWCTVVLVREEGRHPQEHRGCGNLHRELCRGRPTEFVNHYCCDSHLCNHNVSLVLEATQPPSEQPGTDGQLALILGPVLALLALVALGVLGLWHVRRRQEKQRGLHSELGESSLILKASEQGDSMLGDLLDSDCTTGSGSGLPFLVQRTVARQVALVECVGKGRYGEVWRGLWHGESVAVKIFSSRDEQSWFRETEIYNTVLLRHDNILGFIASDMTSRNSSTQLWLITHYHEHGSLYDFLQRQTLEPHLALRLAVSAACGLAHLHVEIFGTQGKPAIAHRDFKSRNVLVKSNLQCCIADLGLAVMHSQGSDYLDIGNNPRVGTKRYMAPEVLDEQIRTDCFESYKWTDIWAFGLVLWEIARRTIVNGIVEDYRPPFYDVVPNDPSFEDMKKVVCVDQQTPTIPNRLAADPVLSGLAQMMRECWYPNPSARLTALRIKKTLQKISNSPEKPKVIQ

[11] = target: CAMK2A (human) (UniProt Q9UQM7)
[12] = target: CLK1 (human) (UniProt P49759)
Chain of CLK1 (human) (P49759 whole entry, looked up): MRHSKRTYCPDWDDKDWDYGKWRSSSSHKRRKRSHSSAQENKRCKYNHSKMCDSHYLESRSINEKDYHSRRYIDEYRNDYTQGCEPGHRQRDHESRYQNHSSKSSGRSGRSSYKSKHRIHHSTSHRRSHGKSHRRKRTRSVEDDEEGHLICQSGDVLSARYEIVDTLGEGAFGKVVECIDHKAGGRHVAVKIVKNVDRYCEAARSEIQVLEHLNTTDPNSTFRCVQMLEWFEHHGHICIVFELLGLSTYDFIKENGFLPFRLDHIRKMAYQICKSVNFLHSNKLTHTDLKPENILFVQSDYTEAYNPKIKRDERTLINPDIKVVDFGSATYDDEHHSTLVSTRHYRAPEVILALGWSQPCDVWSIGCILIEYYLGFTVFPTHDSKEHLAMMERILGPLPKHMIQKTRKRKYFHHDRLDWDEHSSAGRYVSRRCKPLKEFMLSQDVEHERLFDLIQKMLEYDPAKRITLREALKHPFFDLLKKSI

[13] = target: TIE1 (human) (UniProt P35590)
Chain of TIE1 (human) (P35590 whole entry, looked up): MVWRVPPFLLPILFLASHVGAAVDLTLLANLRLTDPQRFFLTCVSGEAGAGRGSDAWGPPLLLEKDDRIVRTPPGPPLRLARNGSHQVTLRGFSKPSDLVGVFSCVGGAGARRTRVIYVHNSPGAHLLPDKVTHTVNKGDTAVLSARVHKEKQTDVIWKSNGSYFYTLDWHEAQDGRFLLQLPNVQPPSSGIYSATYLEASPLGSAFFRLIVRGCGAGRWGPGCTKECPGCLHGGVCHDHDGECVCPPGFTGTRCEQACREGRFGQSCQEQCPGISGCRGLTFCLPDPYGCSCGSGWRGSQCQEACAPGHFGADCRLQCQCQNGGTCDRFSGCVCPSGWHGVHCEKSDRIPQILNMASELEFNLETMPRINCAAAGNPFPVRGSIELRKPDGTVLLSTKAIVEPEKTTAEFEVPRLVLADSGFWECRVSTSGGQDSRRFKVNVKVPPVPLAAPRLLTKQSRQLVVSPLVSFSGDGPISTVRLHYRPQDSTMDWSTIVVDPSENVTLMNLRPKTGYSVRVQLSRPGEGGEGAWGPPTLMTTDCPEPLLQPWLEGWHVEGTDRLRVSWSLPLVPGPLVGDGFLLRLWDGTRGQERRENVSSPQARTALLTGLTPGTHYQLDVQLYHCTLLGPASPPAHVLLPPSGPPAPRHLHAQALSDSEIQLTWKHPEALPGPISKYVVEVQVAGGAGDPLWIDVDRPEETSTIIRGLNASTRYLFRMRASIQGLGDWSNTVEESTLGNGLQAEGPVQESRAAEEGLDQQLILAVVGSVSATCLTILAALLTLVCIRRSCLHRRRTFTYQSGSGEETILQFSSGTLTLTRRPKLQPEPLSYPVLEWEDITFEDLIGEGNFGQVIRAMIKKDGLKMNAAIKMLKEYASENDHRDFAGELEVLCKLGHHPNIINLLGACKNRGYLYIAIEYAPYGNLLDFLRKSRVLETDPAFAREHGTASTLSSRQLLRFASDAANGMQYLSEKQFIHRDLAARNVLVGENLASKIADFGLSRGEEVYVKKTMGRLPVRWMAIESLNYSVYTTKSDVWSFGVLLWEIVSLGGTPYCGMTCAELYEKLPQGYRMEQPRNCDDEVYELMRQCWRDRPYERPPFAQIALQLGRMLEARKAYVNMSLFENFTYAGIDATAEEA

[14] = test system: EGFR (human), P00533 [G719C]
[15] = target: RET (human) (UniProt P07949)
[16] = target: BTK (human) (UniProt Q06187)
Chain of BTK (human) (Q06187 whole entry, looked up): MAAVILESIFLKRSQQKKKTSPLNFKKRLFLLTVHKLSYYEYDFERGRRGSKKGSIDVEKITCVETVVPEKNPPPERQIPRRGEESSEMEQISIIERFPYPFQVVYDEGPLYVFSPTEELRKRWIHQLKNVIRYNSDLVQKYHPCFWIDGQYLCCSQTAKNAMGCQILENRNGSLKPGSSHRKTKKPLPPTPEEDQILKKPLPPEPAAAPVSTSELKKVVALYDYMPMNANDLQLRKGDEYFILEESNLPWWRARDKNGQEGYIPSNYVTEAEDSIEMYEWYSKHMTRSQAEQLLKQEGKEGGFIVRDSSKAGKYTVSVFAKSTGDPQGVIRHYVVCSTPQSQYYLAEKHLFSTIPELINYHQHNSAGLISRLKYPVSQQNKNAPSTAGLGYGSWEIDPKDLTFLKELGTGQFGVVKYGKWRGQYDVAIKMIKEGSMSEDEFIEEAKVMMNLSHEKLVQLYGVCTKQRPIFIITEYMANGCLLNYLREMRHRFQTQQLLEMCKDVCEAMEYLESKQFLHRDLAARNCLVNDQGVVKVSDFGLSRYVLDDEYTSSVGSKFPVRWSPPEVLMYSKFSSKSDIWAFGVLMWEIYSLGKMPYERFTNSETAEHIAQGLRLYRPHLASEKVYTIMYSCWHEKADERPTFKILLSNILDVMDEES

[17] = target: PAK6 (human) (UniProt Q9NQU5)
[18] = target: STK11 (human) (UniProt Q15831)
[19] = target: SRC (human) (UniProt P12931)
Chain of SRC (human) (P12931 whole entry, looked up): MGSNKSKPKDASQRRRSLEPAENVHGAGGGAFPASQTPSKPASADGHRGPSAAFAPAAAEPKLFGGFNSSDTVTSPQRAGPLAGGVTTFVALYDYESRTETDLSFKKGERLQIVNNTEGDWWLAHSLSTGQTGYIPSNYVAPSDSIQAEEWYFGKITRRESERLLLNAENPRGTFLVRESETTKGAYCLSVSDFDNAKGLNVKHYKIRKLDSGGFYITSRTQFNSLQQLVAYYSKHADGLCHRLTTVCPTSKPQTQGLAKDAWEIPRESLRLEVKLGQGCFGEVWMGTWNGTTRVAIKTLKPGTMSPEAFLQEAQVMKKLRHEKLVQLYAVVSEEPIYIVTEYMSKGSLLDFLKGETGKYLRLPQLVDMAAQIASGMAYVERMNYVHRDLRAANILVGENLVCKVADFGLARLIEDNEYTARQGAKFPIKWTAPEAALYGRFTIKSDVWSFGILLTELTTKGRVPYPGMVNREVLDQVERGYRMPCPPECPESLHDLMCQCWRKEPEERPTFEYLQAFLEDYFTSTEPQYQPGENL

[20] = target: MAP3K5 (human) (UniProt Q99683)
[21] = target: TTK (human) (UniProt P33981)
[22] = target: MUSK (human) (UniProt O15146)
[23] = target: PKN2 (human) (UniProt Q16513)
[24] = target: PRKCQ (human) (UniProt Q04759)
[25] = target: MAPK10 (human) (UniProt P53779)
Chain of MAPK10 (human) (P53779 whole entry, looked up): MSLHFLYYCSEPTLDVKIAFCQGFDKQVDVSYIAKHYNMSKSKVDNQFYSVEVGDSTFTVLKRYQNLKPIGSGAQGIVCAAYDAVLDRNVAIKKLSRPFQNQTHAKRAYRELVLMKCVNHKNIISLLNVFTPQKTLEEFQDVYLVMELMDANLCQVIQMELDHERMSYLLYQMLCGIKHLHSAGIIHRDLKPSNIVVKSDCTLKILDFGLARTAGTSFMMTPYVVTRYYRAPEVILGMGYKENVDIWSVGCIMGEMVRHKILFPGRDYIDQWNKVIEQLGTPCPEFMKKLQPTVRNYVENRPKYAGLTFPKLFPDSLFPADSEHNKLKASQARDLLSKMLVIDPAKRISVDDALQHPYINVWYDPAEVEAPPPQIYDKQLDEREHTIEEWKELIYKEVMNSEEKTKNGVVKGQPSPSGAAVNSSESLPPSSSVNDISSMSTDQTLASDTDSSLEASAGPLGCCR

[26] = target: PHKG1 (human) (UniProt Q16816)
[27] = target: MAPK9 (human) (UniProt P45984)
[28] = target: CAMK1D (human) (UniProt Q8IU85)
[29] = target: FRK (human) (UniProt P42685)
[30] = target: CLK4 (human) (UniProt Q9HAZ1)
[31] = target: AKT2 (human) (UniProt P31751)
[32] = target: PI4KB (human) (UniProt Q9UBF8)
[33] = target: CDKL5 (human) (UniProt O76039)
[34] = target: HIPK2 (human) (UniProt Q9H2X6)
[35] = target: GRK1 (human) (UniProt Q15835)
[36] = target: EPHB6 (human) (UniProt O15197)
[37] = test system: MET (human), P08581 [M1250T]
[38] = target: PRPF4B (human) (UniProt Q13523)
[39] = target: PIK3C2B (human) (UniProt O00750)
[40] = target: ROCK1 (human) (UniProt Q13464)

Measured: kinase still bound, per cent of control

Chain of MAPK4 (human) (P31152 whole entry, looked up): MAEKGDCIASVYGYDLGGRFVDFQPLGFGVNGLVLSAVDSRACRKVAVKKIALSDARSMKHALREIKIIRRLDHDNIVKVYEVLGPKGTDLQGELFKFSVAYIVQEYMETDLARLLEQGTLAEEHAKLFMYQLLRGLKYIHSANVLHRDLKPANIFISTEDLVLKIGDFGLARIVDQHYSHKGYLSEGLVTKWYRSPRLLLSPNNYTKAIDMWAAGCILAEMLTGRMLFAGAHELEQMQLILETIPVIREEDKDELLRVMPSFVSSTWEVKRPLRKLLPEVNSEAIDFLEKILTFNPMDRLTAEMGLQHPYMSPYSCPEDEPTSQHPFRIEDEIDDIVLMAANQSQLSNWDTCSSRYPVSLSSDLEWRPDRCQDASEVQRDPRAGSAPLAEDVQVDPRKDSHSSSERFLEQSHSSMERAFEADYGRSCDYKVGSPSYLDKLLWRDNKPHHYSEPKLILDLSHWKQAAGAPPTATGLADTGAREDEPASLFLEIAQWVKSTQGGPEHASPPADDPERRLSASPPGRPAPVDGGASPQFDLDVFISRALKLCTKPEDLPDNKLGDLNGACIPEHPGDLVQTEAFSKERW
Chain of PRKX (human) (P51817 whole entry, looked up): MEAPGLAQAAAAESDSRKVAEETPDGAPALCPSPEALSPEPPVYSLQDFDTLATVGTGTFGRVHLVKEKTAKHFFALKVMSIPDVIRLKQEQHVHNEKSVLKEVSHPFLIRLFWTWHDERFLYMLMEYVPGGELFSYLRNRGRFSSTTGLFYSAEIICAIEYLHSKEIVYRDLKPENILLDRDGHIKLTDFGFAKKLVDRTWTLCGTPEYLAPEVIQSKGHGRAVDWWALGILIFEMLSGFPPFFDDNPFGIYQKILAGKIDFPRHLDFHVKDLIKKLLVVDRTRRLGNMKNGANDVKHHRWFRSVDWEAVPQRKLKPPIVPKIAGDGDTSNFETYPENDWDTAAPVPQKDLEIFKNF

COc1ccc(N(C(=O)Oc2cc(C(=O)Nc3cccc(C(F)(F)F)c3)ccc2C)c2ccnc(Nc3ccc(N4CCN(C)CC4)cc3)n2)c(OC)c1
20%: [22]
0.15%: [19]
23%: [14]
19%: [27]
0.35%: [15]
1.4%: [16]
0.4%: [29]
3.8%: [13]
not listed: [32] | [33] | [34] | [35] | [36] | [37] | [38] | [39] | [40]
100%: all other assays above

CCOc1cc(N2CCC(O)CC2)ccc1Nc1ncc2c(n1)N(C)c1ccccc1C(=O)N2C
19%: [21]
100%: all other assays above

COc1cc(N2CCC(C(N)=O)CC2)ccc1Nc1nc(N)c(Cl)c(Nc2ccccc2S(=O)(=O)C(C)C)n1
29%: [13]
6.6%: [29]
26%: [16]
0.1%: [8]
32%: [11]
20%: [14]
28%: [25]
12%: [26]
7%: [21]
5.5%: [30]
0.7%: [12]
4.1%: [5]
22%: [6]
13%: [2]
23%: [19]
not listed: [32] | [33] | [34] | [35] | [36] | [37] | [38] | [40]
100%: all other assays above

COc1cc(C)c(Sc2cnc(NC(=O)c3ccc(CNC(C)C(C)C)cc3)s2)cc1C(=O)N1CCN(C(C)=O)CC1 (stereo not given)
11%: [13]
1.2%: [19]
33%: [30]
0.2%: [22]
4.9%: [12]
2.6%: [16]
not listed: [32] | [33] | [34] | [35] | [36] | [37] | [38] | [40]
100%: all other assays above
